Assay results from the NIST ThermoML archive (doi:10.1021/je900227j).

Conditions: 101.33 kPa, Liquid; for speed of sound: Pulse-echo method; for mass density: Pycnometric method

CCCCCCCBr [1-bromoheptane]
Conditions | mass density [kg/m3] | speed of sound [m/s]
243.74 K | – | 1308.3
253.15 K | 1180.21 | –
263.15 K | 1169.57 | –
273.15 K | 1159.15 | –
273.33 K | – | 1207.2
283.15 K | 1148.71 | –
298.15 K | 1132.91 | –
303.19 K | – | 1108.7
323.14 K | – | 1045.1
323.15 K | 1105.97 | –
343.15 K | 1084.54 | –
353.14 K | – | 952.86
363.15 K | 1061.75 | –
383.15 K | 1038.55 | –
383.17 K | – | 863.47
393.15 K | 1026.63 | –
423.22 K | – | 748.09

CCCCCCCCBr [1-bromooctane]
Conditions | mass density [kg/m3] | speed of sound [m/s]
243.61 K | – | 1336.3
253.15 K | 1151.11 | –
263.15 K | 1140.86 | –
273.15 K | 1131.22 | –
273.28 K | – | 1235.4
283.15 K | 1121.21 | –
293.15 K | 1111.01 | –
303.15 K | 1100.89 | –
303.16 K | – | 1137.2
323.02 K | – | 1073.8
323.15 K | 1080.6 | –
343.15 K | 1060.45 | –
352.91 K | – | 981.92
363.15 K | 1039.47 | –
382.88 K | – | 892.87
383.15 K | 1018.75 | –
393.15 K | 1008.38 | –
402.55 K | – | 835.51
423.04 K | – | 778.72

CCCCCCCCCCCBr [1-bromoundecane]
Conditions | mass density [kg/m3] | speed of sound [m/s]
273.15 K | 1067.26 | –
273.42 K | – | 1307
283.2 K | 1058.34 | –
293.2 K | 1049.49 | –
298.15 K | 1045.03 | –
303.22 K | – | 1209
323.19 K | – | 1145.6
323.2 K | 1023.21 | –
343.2 K | 1005.75 | –
353.14 K | – | 1054.4
363.2 K | 987.93 | –
383.14 K | – | 966.59
383.2 K | 969.56 | –
403.13 K | – | 909.71
403.25 K | 951.27 | –
423.13 K | – | 854.45

CCCCCCBr [1-bromohexane]
Conditions | mass density [kg/m3] | speed of sound [m/s]
243.6 K | – | 1273.8
253.15 K | 1217.95 | –
263.15 K | 1206.62 | –
273.15 K | 1195.28 | –
273.31 K | – | 1172.8
283.15 K | 1183.82 | –
298.15 K | 1166.83 | –
303.2 K | – | 1073.6
323.15 K | 1137.27 | –
323.2 K | – | 1009.3
343.15 K | 1113.66 | –
353.16 K | – | 916.03
383.15 K | 1066.11 | –
383.19 K | – | 826.35
403.15 K | 1040.91 | –
403.25 K | – | 767.47
423.23 K | – | 709.98

CCCCBr [1-bromobutane]
Conditions | mass density [kg/m3] | speed of sound [m/s]
243.38 K | – | 1195.3
253.15 K | 1326.49 | –
263.15 K | 1313.8 | –
273.15 K | 1300.5 | –
273.26 K | – | 1091
283.15 K | 1286.37 | –
293.15 K | 1272.7 | –
298.15 K | 1265.66 | –
303.15 K | 1258.55 | –
323.15 K | 1229.53 | –
323.22 K | – | 925.99
343.22 K | – | 861.16
363.23 K | – | 797.6
383.31 K | – | 735.21

CCCCCBr [1-bromopentane]
Conditions | mass density [kg/m3] | speed of sound [m/s]
243.73 K | – | 1240
253.15 K | 1260.65 | –
263.15 K | 1249.88 | –
273.32 K | – | 1137.5
283.15 K | 1226.85 | –
293.15 K | 1214.88 | –
303.15 K | 1202.6 | –
303.22 K | – | 1037.1
323.15 K | 1177.13 | –
323.17 K | – | 972.37
343.15 K | 1150.97 | –
353.18 K | – | 877.57
363.15 K | 1124.69 | –
383.15 K | 1097.39 | –
383.23 K | – | 785.49
393.15 K | 1083.35 | –
403.28 K | – | 725.54
423.48 K | – | 666.58

CCCCCCCCCCBr [1-bromodecane]
Conditions | mass density [kg/m3] | speed of sound [m/s]
253.4 K | 1105.66 | –
263.3 K | 1096.34 | –
273.25 K | 1087.32 | –
283.2 K | 1078.06 | –
293.15 K | 1069.01 | –
298.15 K | 1064.47 | –
323.15 K | 1041.72 | –
323.2 K | – | 1123.8
343.15 K | 1023.01 | –
353.19 K | – | 1032.2
363.15 K | 1004.33 | –
383.15 K | 985.41 | –
383.22 K | – | 944.49
403.23 K | – | 888.22
403.25 K | 966.27 | –
423.27 K | – | 833.21
423.3 K | 946.49 | –

CCCBr [1-bromopropane]
Conditions | mass density [kg/m3] | speed of sound [m/s]
243.15 K | 1431.07 | –
243.76 K | – | 1144.8
253.15 K | 1415.43 | –
263.15 K | 1400.28 | –
263.38 K | – | 1075
273.15 K | 1385.33 | –
273.31 K | – | 1040.1
283.15 K | 1369.4 | –
283.26 K | – | 1005.5
293.15 K | 1352.89 | –
293.22 K | – | 971.22
298.15 K | 1344.48 | –
298.21 K | – | 954.05
323.21 K | – | 870.16
343.21 K | – | 804.19
363.23 K | – | 739.38
383.47 K | – | 674.94

CCCCCCCCCBr [1-bromononane]
Conditions | mass density [kg/m3] | speed of sound [m/s]
253.15 K | 1124.52 | –
253.46 K | – | 1329.9
263.2 K | 1115.2 | –
273.15 K | 1105.5 | –
273.29 K | – | 1262.7
283.15 K | 1096.09 | –
293.15 K | 1086.58 | –
298.15 K | 1082.2 | –
303.15 K | – | 1165.1
323.14 K | – | 1101.1
323.15 K | 1058.34 | –
343.15 K | 1038.92 | –
353.1 K | – | 1009.9
363.15 K | 1019.42 | –
383.05 K | – | 921.46
383.15 K | 999.36 | –
393.15 K | 989.17 | –
402.98 K | – | 864.42
413.15 K | 968.48 | –
422.72 K | – | 808.79

CCCCCCCCCCCCBr [1-bromododecane]
Conditions | mass density [kg/m3] | speed of sound [m/s]
273.15 K | 1056.54 | –
273.32 K | – | 1323.5
283.15 K | 1048.47 | –
293.15 K | 1039.81 | –
303.15 K | 1031.27 | –
303.21 K | – | 1224.8
323.15 K | 1013.99 | –
323.18 K | – | 1161.2
343.15 K | 996.24 | –
353.15 K | – | 1069.7
363.15 K | 979.02 | –
383.15 K | 961.54 | –
383.17 K | – | 982.95
393.15 K | 952.43 | –
403.19 K | – | 926.37
413.15 K | 933.49 | –
423.14 K | – | 871.74
423.15 K | 923.65 | –
